Like-named read-outs stand apart in the source and are kept apart here. Marks after values point to notes of the source that are not given here.
Tests used:
[1] = system: Prevotella melaninogenica ATCC No. 25845; details: for zone of inhibition of Prevotella melaninogenica: disc on BA plate, anaerobic 48 hours, mean of three assays; for zone of inhibition of P. melaninogenica, comparison between minerals: at each of the concentrations (2.5-15%); for zone of inhibition of P. melaninogenica, comparison between minerals / overall antibacterial effect on P. melaninogenica: in words; for overall antibacterial effect on P. melaninogenica: summary
Description: (§1) The bacterial strains used for this study were obtained from the American Type Culture Collection (ATCC).
(§2) Dehydrated bacteria were resuspended in 5 mL of Brain Heart Infusion (BHI) broth and incubated anaerobically for 48 hours at 37° C. A total of 20 uL of each resuspended bacterial solution was plated on two 5% Trypticase Sheep Blood Agar (BA) plates and incubated anaerobically for 48 hours at 37° C. to ensure that a pure culture was maintained throughout the resuspension process. Six (6) vials of each bacterium were frozen down from the resuspended broth in a 20% glycerol solution (500 uL bacteria: 500 uL 40% glycerol).
(§3) One vial from the frozen stock of each bacterial strain was grown in 100 mL of Difco Anaerobe Broth MIC. P. melaninogenica was grown anaerobically for 24 hours at 37° C. and F. necrophorum was grown anaerobically for 48 hours at 37° C. After incubation, one hundred (100) 1 mL-vials of each bacterium were frozen down in a 10% glycerol solution.
(§4) Colony forming units/mL (CFU/mL) for each bacterium was determined by thawing 3 vials of each bacteria and making serial 1:10 dilutions out to 10e^−7. Separate serial dilutions were made for each of the three vials. A total of 100 uL of dilutions 10e^−3, 10e^−4, 10e^−5, 10e^−6, and 10e^−7 were plated in duplicate for each vial on BA plates and incubated under the appropriate culture conditions for each. The number of colonies growing on each dilution plate was counted and the CFU/mL for each dilution was determined. The average CFU/mL for each bacterium was calculated and used for all further assays.
(§5) The ZnCl arrived as a 60% solution and was diluted with distilled water to achieve concentrations of 2.5%, 5%, 10%, and 15% by weight. […] All mineral concentrations were filter-sterilized to ensure sterility.
(§6) To determine whether different concentrations of mineral salt solutions can inhibit the growth of an established culture, a separate blank paper disc was infused with each concentration of mineral salt solution and placed onto BA plates that had been swabbed with established cultures of each bacterium. Plates were incubated anaerobically for 48 hours and the zone (in mm) around each disc with no bacterial growth was measured with a caliper. The assay was repeated three times, and the mean zone of inhibition for each mineral concentration was calculated.
(§7) Data were analyzed using the Mixed Model procedure of SAS (PROC MIXED; SAS Stat Inc., Cary, N.C.) to test the effect of different concentrations for each mineral on P. melaninogenica and F. necrophorum. Least square means were calculated and separated using the PDIFF option of SAS. Contrast statements of SAS were used to determine linear and quadratic effects. The plate was used as the experimental unit. An alpha level of 0.05 was used to assess the significance in this experiment.

[2] = system: Fusobacterium necrophorum ATCC No. 25286; details: for zone of inhibition of Fusobacterium necrophorum: disc on BA plate, anaerobic 48 hours, mean of three assays; for zone of inhibition of F. necrophorum, comparison between minerals: at each of the concentrations (2.5-15%), P<0.01; for zone of inhibition of F. necrophorum, comparison between minerals / overall antibacterial effect on F. necrophorum: in words; for overall antibacterial effect on F. necrophorum: summary
Description: as §1, §2, §3, §4, §5, §6, §7

[3] = 2.5% solution in distilled water
[4] = 10% solution in distilled water
[5] = 15% solution in distilled water

| Structure (SMILES) | pH of mineral salt solution [3] | pH of mineral salt solution (5% solution in distilled water) | pH of mineral salt solution [4] | pH of mineral salt solution [5] | zone of inhibition of Prevotella melaninogenica ([1]; 2.5% solution) | zone of inhibition of Prevotella melaninogenica ([1]; 5% solution) | zone of inhibition of Prevotella melaninogenica ([1]; 10% solution) | zone of inhibition of Prevotella melaninogenica ([1]; 15% solution) | zone of inhibition of P. melaninogenica, comparison between minerals [1] | overall antibacterial effect on P. melaninogenica [1] | zone of inhibition of Fusobacterium necrophorum ([2]; 2.5% solution) | zone of inhibition of Fusobacterium necrophorum ([2]; 5% solution) | zone of inhibition of Fusobacterium necrophorum ([2]; 10% solution) | zone of inhibition of Fusobacterium necrophorum ([2]; 15% solution) | zone of inhibition of F. necrophorum, comparison between minerals [2] | overall antibacterial effect on F. necrophorum [2] | pH relative to the other mineral salts (at all of the concentrations, in words) |
| --- | --- | --- | --- | --- | --- | --- | --- | --- | --- | --- | --- | --- | --- | --- | --- | --- | --- |
| O=S(=O)([O-])[O-].[Cu+2] [CuSO4, copper sulfate] | 4.34 | 4.13 | 3.94 | 3.81 | 31.0^a mm | 31.7^a mm | 38.2^a mm | 40.7^a mm | not significantly different | greatest antibacterial effect | 36.3^c mm | 40.7^c mm | 46.7^c mm | 52.2^c mm | greatest | greatest antibacterial effect | – |
| [Cl-].[Cl-].[Zn+2] [ZnCl2, zinc chloride] | 6.02 | 5.78 | 5.43 | 5.21 | 38.9^b mm | 42.5^b mm | 46.6^b mm | 52.0^b mm | significantly greater zone of inhibition | greatest antibacterial effect | 27.6^b mm | 33.9^b mm | 41.3^b mm | 44.2^b mm | intermediate | greatest antibacterial effect | less acidic |
| O=S(=O)([O-])[O-].[Zn+2] [ZnSO4, zinc sulfate] | 5.06 | 4.75 | 4.34 | 4.16 | 29.3^a mm | 33.5^a mm | 38.6^a mm | 42.9^a mm | – | only slightly less antibacterial activity | 25.0^a mm | 29.5^a mm | 35.8^a mm | 40.4^a mm | smallest | only slightly less antibacterial activity | – |
